Test results from patent publication US20070172509A1, “Drug Delivery System for Retarding Release of Water Soluble Drugs” (Conor Medsystems, Inc., priority 2006, published 2007).
Converted amounts (≈) assume the structure as drawn.

What was measured:
[1] = Film morphology of agent in PLGA 85/15 film cast from anisole; assay type: physicochemical; set-up: key: A—Amorphous; D—Dispersion; C—Crystalline
[2] = cited from earlier work
[3] = 5% agent in PLGA 85/15 film cast from anisole
[4] = 10% agent in PLGA 85/15 film cast from anisole
[5] = 25% agent in PLGA 85/15 film cast from anisole
[6] = 50% agent in PLGA 85/15 film cast from anisole
[7] = 75% agent in PLGA 85/15 film cast from anisole
[8] = 90% agent in PLGA 85/15 film cast from anisole

Film Morphology [1, 3]	Film Morphology [1, 4]	Film Morphology [1, 5]	Film Morphology [1, 6]	Film Morphology [1, 7]	Film Morphology [1, 8]	SMILES	water solubility [2]
A	A	A	D	Mixed	C	Cc1cc(C(C)(C)C)c(O)c(C(C)(C)C)c1 [BHT, butylated hydroxy toluene]	
A	A					O=C(OCc1ccccc1)c1ccccc1 [Benzyl Benzoate]	
	A	Mixed	C			CC[C@@H]1/C=C(\C)C[C@H](C)C[C@H](OC)[C@H]2O[C@@](O)(C(=O)C(=O)N3CCCC[C@H]3C(=O)O[C@H](/C(C)=C/[C@@H]3CC[C@H](Cl)[C@H](OC)C3)[C@H](C)[C@@H](O)CC1=O)[C@H](C)C[C@@H]2OC [Pimecrolimus, reference compound]	
A	A	Mixed	C	C	C	CCCOC(=O)c1ccc(O)cc1 [Propyl 4-hydroxybenzoate]	
						Nc1nc(Cl)nc2c1ncn2[C@H]1C[C@H](O)[C@@H](CO)O1 [cladribine]	200 µg/mL (≈ 700 µM)

SMILES	Film Morphology [1, 3]	Film Morphology [1, 4]	Film Morphology [1, 5]	Film Morphology [1, 6]	Film Morphology [1, 7]	Film Morphology [1, 8]	water solubility [2]
CCCCOC(=O)c1ccc(O)cc1 [Butyl 4-Hydroxybenzoate]	A	A	A	C	C	C	
